One block for each compound: values may come before it. Activity calls are given as the source filed them. No cut-off for these calls is given here.
How the values were obtained:
Carbonic anhydrase 9 = Carbonic anhydrase 9 (Homo sapiens, UniProt Q16790)
Description: Inhibition of human CA9 by stopped-flow assay

Carbonic anhydrase 4 = Carbonic anhydrase 4 (Homo sapiens, UniProt P22748); experiment: Inhibition of human CA4 by stopped-flow assay
Oryctolagus cuniculus = experiment: Antiglaucoma activity in rabbit assessed as reduction in intraocular pressure administered topically measured upto 6 hrs; format: functional, organism-based; conditions: time hrs <=6
MCF7 = experiment: Cytotoxicity against human MCF7 cells; format: functional, cell-based
HT-29 [1] = experiment: Down regulation of CA9 expression in human HT-29 cells at […] by western blot analysis; format: functional, cell-based
HT-29 [2] = experiment: Down regulation of CA12 expression in human HT-29 cells at […] by western blot analysis; format: functional, cell-based
Carbonic anhydrase 2 = Carbonic anhydrase 2 (Homo sapiens, UniProt P00918)
Description: Inhibition of human CA2 by stopped-flow assay

Carbonic anhydrase 1 = Carbonic anhydrase 1 (Homo sapiens, UniProt P00915)
Description: Inhibition of human CA1 by stopped-flow assay

[3] = target: Mitogen-activated protein kinase 14 (Homo sapiens, UniProt Q16539); experiment: Inhibition of p38alphaMAPK (unknown origin)
MDA-MB-231 [4] = experiment: Induction of apoptosis in human MDA-MB-231 cells assessed as early apoptotic cells at IC50 by flow cytometry analysis (reference value: 0.77 %); format: functional
MDA-MB-231 [5] = experiment: Induction of cell cycle arrest in human MDA-MB-231 cells assessed as increase in sub-G1 accumulation at IC50 by flow cytometry analysis; format: functional, cell-based
MDA-MB-231 [6] = experiment: Induction of apoptosis in human MDA-MB-231 cells assessed as late apoptotic cells at IC50 by flow cytometry analysis (reference value: 0.26 %); format: functional
MDA-MB-231 [7] = experiment: Induction of cell cycle arrest in human MDA-MB-231 cells assessed as […] in G2/M accumulation at IC50 by flow cytometry analysis; format: functional, cell-based
MDA-MB-231 [8] = experiment: Induction of apoptosis in human MDA-MB-231 cells assessed as necrotic cells at IC50 by flow cytometry analysis (reference value: 0.51 %); format: functional

Carbonic anhydrase 4, sequence (P22748 whole entry): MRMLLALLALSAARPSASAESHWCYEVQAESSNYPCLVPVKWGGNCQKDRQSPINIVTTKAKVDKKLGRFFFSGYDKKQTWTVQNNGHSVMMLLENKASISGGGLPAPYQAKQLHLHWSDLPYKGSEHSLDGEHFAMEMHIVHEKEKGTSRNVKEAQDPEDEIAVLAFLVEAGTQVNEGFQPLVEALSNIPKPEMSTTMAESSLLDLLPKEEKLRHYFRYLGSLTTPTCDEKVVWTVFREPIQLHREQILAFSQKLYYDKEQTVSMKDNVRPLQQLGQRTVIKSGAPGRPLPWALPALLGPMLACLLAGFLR
Carbonic anhydrase 1, sequence (P00915 whole entry): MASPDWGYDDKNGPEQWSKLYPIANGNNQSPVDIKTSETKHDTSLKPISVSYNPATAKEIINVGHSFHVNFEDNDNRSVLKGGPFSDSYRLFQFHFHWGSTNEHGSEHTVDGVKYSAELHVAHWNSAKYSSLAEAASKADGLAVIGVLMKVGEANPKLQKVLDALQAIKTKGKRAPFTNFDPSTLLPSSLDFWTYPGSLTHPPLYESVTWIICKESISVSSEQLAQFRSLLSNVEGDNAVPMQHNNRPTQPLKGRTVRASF
Mitogen-activated protein kinase 14, sequence (Q16539 whole entry): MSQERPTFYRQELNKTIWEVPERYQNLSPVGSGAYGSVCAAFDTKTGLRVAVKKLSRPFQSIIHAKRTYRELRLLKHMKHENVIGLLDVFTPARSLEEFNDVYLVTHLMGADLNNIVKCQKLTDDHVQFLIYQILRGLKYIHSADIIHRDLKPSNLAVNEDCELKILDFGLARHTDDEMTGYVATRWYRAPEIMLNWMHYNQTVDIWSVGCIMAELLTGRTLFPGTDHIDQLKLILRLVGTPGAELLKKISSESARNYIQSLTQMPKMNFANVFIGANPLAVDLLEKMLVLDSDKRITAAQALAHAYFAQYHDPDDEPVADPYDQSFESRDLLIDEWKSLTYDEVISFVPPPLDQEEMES

Ki (Carbonic anhydrase 9): 0.318 µM | Ki (Carbonic anhydrase 4): 0.263 µM
SMILES: CC(=O)n1cc(/C=C2/N=C(c3ccccc3)N(c3ccc(S(N)(=O)=O)cc3)C2=O)c2ccccc21

Ki (Carbonic anhydrase 9): 0.0682 µM
SMILES: COc1cc(/C=C2/N=C(c3ccccc3)N(c3ccc(S(N)(=O)=O)cc3)C2=O)cc(OC)c1OC

SMILES: NS(=O)(=O)c1ccc(C(=O)N[C@@H]2O[C@H](CO)[C@@H](O)[C@H](O)[C@@H]2O)cc1
Activity (Oryctolagus cuniculus): Active

IC50 (Carbonic anhydrase 9): 0.76 µM
SMILES: C[C@@H]1OC[C@@](O)(NC(=O)c2ccc(S(N)(=O)=O)cc2)[C@H](O)[C@H]1O

SMILES: NS(=O)(=O)c1ccc(Nc2nc(NN3C(=O)/C(=C\c4ccccc4)N=C3c3ccccc3)cs2)cc1
IC50 (MCF7): 45.9 µM

Ki (Carbonic anhydrase 9): 0.023 µM
SMILES: COc1ccc(OC)c(/C=C2/N=C(c3ccccc3)N(c3ccc(S(N)(=O)=O)cc3)C2=O)c1

SMILES: CN(C)c1ccc(/C=C2/N=C(c3ccccc3)N(Nc3csc(Nc4ccc(S(N)(=O)=O)cc4)n3)C2=O)cc1
IC50 (MCF7): 38.9 µM

SMILES: NS(=O)(=O)c1ccc(C/N=C/c2c(OCc3cn(CCCOc4ccc5ccc(=O)oc5c4)nn3)ccc3ccccc23)cc1
Activity (HT-29 [1]): Active | Activity (HT-29 [2]): Active

Ki (Carbonic anhydrase 9): 0.0089 µM
SMILES: CCN1C(=O)/C(=N\NC(=O)c2ccc(S(N)(=O)=O)cc2)c2ccccc21

Ki (Carbonic anhydrase 2): 0.00083 µM | Ki (Carbonic anhydrase 9): 0.0124 µM | Ki (Carbonic anhydrase 1): 0.095 µM | IC50 [3]: 0.14 µM | Ki (Carbonic anhydrase 4): 0.0069 µM
SMILES: COc1ccc(C2=N/C(=C/c3ccc(O)cc3)C(=O)N2c2ccc(S(N)(=O)=O)cc2)cc1

Ki (Carbonic anhydrase 9): 0.0587 µM
SMILES: NS(=O)(=O)c1ccc(N2C(=O)/C(=C\c3ccccc3)N=C2c2ccccc2)cc1

Ki (Carbonic anhydrase 9): 0.0609 µM
SMILES: O=Cc1ccccc1OCc1cn(CCCOc2ccc3ccc(=O)oc3c2)nn1
Activity (HT-29 [1]): Active | Activity (HT-29 [2]): Active

Ki (Carbonic anhydrase 9): 7430 µM
SMILES: NS(=O)(=O)c1ccc(NC(=O)Nc2ccc(/N=C3\C(=O)Nc4ccc(Cl)cc43)cc2)cc1
Activity (MDA-MB-231 [4]): 7.28% | Activity (MDA-MB-231 [5]): Active | Activity (MDA-MB-231 [6]): 11.26% | Activity (MDA-MB-231 [7]): Active | Activity (MDA-MB-231 [8]): 2.47%

SMILES: NS(=O)(=O)c1ccc(C(=O)N[C@@H]2OC[C@@H](O)[C@H](O)[C@H]2O)cc1
Activity (Oryctolagus cuniculus): Active

Ki (Carbonic anhydrase 9): 0.0007 µM
SMILES: NS(=O)(=O)c1ccc(-n2nnc(C(=O)N3N=C(c4ccccn4)CC3(O)C(F)(F)F)c2-c2ccc(F)cc2)cc1 (stereo not drawn)

Ki (Carbonic anhydrase 9): 1.47 µM | Ki (Carbonic anhydrase 4): > 10 µM
SMILES: CC(=O)NS(=O)(=O)c1ccc(N2C(=O)/C(=C\c3cn(C(C)=O)c4ccccc34)N=C2c2ccccc2)cc1

Ki (Carbonic anhydrase 9): 1.41 µM
SMILES: NS(=O)(=O)c1ccc(-n2nnc(C(=O)O)c2-c2ccccn2)cc1

Ki (Carbonic anhydrase 2): > 10 µM | Ki (Carbonic anhydrase 9): > 10 µM | Ki (Carbonic anhydrase 1): > 10 µM | Ki (Carbonic anhydrase 4): > 10 µM
SMILES: CC(=O)n1cc(/C=C2/N=C(c3ncccn3)N(c3ccc(S(N)(=O)=O)cc3)C2=O)c2ccccc21

SMILES: NS(=O)(=O)c1ccc(Nc2nc(NN3C(=O)/C(=C\c4ccc(Cl)cc4)N=C3c3ccccc3)cs2)cc1
Ki (Carbonic anhydrase 9): 0.0292 µM | IC50 (MCF7): > 150 µM

SMILES: COC(=O)[C@H]1O[C@@H](NC(=O)c2ccc(S(N)(=O)=O)cc2)[C@H](O)[C@@H](O)[C@@H]1O
Activity (Oryctolagus cuniculus): Active

Reference: ChEMBL document CHEMBL4819110, “Developments of small molecules as inhibitors for carbonic anhydrase isoforms” (Bioorg Med Chem, 2021)
